Data on 138 molecules can be found in a melting point compilation (Tetko et al.).

The conditions of this data set: a range is the spread between reports.

Structures are written as SMILES.

By melting point is commonly meant the temperature, or range, at which the solid turns liquid. `C1=Cc2cccc3cccc1c23` returned a melting point of 91 to 92.5 °C.

The molecule `OC1CCCCCCCCCCC1` showed a melting point of 76 to 78 °C.

Take `N#Cc1cccc(C#N)c1`: the melting point lay in the range of 161 to 162 °C.

Take `O=[N+]([O-])c1ccc(I)cc1`: the melting point is 173 to 176 °C.

Regarding `CCC(C(=O)O)C(=O)O`, the melting point lay within 113 to 114 °C.

In the case of `C#CC(C)(C)C`, the melting point is -78.2 to -78 °C.

The molecule `Cc1ccccc1C(C)C` registered a melting point of -72 to -71.5 °C.

In turn, `ClC(Cl)=C(Cl)Cl` came in with a melting point of -22.3 to -22 °C.

In turn, `c1ccc(SSc2ccccc2)cc1` yielded a melting point of 60 to 62 °C.

In the case of `CNc1ccccc1C(=O)OC`, the melting point was in the range of 18 to 19 °C.

Molecule `Cc1cc2nc[nH]c2cc1C` returned a melting point of 204 to 206 °C.

The molecule `Cc1ccc(C)c(C)c1` returned a melting point of -44 to -43.8 °C.

On to `C/C=C/c1ccccc1`, for which the melting point is -29.3 to -27.1 °C.

Turning to `O=C(O)C12CC3CC(CC(C3)C1)C2`, the melting point was in the range of 174 to 175 °C.

Turning to `NC1CCCCC1`, the melting point was -18 to -17 °C.

In turn, `O=C1CC(c2ccc(O)cc2)Oc2cc(O)cc(O)c21` (stereo not drawn) displayed a melting point of 250 to 251 °C.

For `CC(=O)C(C)(C)C`, the melting point is -53 to -52 °C.

Take `CCC(C)(C)CC(C)C`: the melting point was -113 °C.

`Nc1cccc(Cl)c1` returned a melting point of -10.4 to -10 °C.

Turning to `O=C1CCCc2ccccc21`, the melting point lay in the range of 7 to 8 °C.

In turn, `NC(=O)c1cccc2ccccc12` displayed a melting point of 206 to 208 °C.

`CCC(=O)c1ccccc1` came in with a melting point of 18 to 19 °C.

Consider `Cc1ccnc(-c2cc(C)ccn2)c1`, for which the melting point fell in the range of 174 to 175 °C.

As to `CC(=O)OCCCCOC(C)=O`, the melting point was in the range of 12 to 13 °C.

`CCCCCCCCCCCCCCCCCCCCCCCCC` registered a melting point of 53 to 54 °C.

With `CCc1ccncc1`, the melting point was -91 to -90.5 °C.

`OCc1ccc(Cl)c(Cl)c1`: the melting point was in the range of 36 to 38 °C.

With `OCc1ccccc1-c1ccccc1`, the melting point fell in the range of 49 to 50 °C.

`Cc1ccc(CO)cc1` gave a melting point of 59 to 61.5 °C.

On to `CC(=O)Nc1ccccc1C`, for which the melting point is 110 to 111 °C.

Turning to `Fc1c(F)c(F)c(C(F)(F)F)c(F)c1F`, the melting point is -66 to -65.6 °C.

`ClCc1ccccc1Cl` gave a melting point of -17 to -13 °C.

Regarding `O=Cc1ccccc1Cl`, the melting point was in the range of 9 to 12.4 °C.

On to `O=C(O)C(Cl)(Cl)Cl`, for which the melting point lay within 56 to 57.5 °C.

With `CCC(=O)OC`, the melting point is -88 to -87.5 °C.

Molecule `CCCCCCc1ccc(O)cc1O` registered a melting point of 65 to 68 °C.

`COc1cccc(C=O)c1O` had a melting point of 41 to 44.5 °C.

Molecule `O=[N+]([O-])c1cccc([N+](=O)[O-])c1Cl` displayed a melting point of 86 to 88 °C.

`Cc1cc(C)cc(C(=O)O)c1` came in with a melting point of 170 to 171 °C.

Take `Cc1ccc(S(=O)(=O)c2ccc(C)cc2)cc1`: the melting point fell in the range of 157 to 159 °C.

`CC(=O)CC(C)C` had a melting point of -84 to -80 °C.

In turn, `Cn1c2ccccc2c2ccccc21` came in with a melting point of 89.3 to 91 °C.

As to `ClCc1cccc(CCl)c1`, the melting point was 34.2 to 36 °C.

Take `CC(C)(C)C#N`: the melting point fell in the range of 15 to 17 °C.

`CC(C)c1cc(C(C)C)c(C(C)C)cc1C(C)C` displayed a melting point of 118 to 119 °C.

Take `CCOC(=O)c1ccccc1N`: the melting point lay in the range of 13 to 15 °C.

`CC(=O)c1cccc(C#N)c1` registered a melting point of 98 to 99 °C.

The molecule `CC(=O)c1cccnc1` showed a melting point of 12 to 13.5 °C.

As for `Cc1ccc(P(c2ccc(C)cc2)c2ccc(C)cc2)cc1`, the melting point fell in the range of 145 to 149 °C.

Molecule `NCc1ccncc1` displayed a melting point of -8 to -7.6 °C.

`ClCCOCCCl` displayed a melting point of -51.9 to -47 °C.

`CC1CC=CC1` gave a melting point of -161 °C.

As to `O=C(Cl)c1cccc(C(=O)Cl)c1`, the melting point was in the range of 43.5 to 44 °C.

`c1ccc(Nc2cccc3ccccc23)cc1` gave a melting point of 61 to 62 °C.

Turning to `CCCCCCCC(C)O` (stereo not drawn), the melting point was -35.5 to -35 °C.

`Cc1cc(C)cc(C)c1` came in with a melting point of -45 to -44.7 °C.

Regarding `O=C(O)c1ccc([N+](=O)[O-])c([N+](=O)[O-])c1`, the melting point fell in the range of 165 to 166 °C.

In the case of `c1ccc(-c2ccccc2-c2ccccc2)cc1`, the melting point was 56 to 57 °C.

As to `CC(=O)OCC(C)C`, the melting point is -99 to -98.8 °C.

The molecule `Cc1c(C)c(C)c(Br)c(C)c1C` displayed a melting point of 162 to 165 °C.

`O=C(c1ccccc1)c1cccc(Br)c1` showed a melting point of 76 to 81 °C.

`CCc1cccc(C)c1C` displayed a melting point of -50 to -49.5 °C.

`COC(=O)c1ccc(OC)cc1` gave a melting point of 49 to 50 °C.

The molecule `CC[C@H]1CC[C@H]2[C@@H]3CC[C@@H]4CCCC[C@]4(C)[C@H]3CC[C@]12C` had a melting point of 83.5 to 84.5 °C.

For `O=C(Cl)c1ccc(Br)cc1`, the melting point lay within 40 to 42 °C.

`N#Cc1cccc(O)c1` gave a melting point of 79.5 to 82 °C.

`COC(N)=O` gave a melting point of 54 to 55 °C.

Turning to `N#Cc1cccc([N+](=O)[O-])c1`, the melting point was in the range of 116 to 117 °C.

For the molecule `Cc1cc(Cl)nc(Cl)c1C#N`, the melting point is 110 to 113 °C.

For `COC(=O)CC(=O)OC`, the melting point was -62 to -61.9 °C.

Molecule `O=C(C=Cc1ccccc1)c1ccc(Cl)cc1` gave a melting point of 96 to 99 °C.

In turn, `NNC(=O)c1cccc(Br)c1` came in with a melting point of 156 to 158 °C.

`NC(=O)c1ccc(O)cc1` came in with a melting point of 161 to 162 °C.

`N#CSCSC#N` displayed a melting point of 105 to 106 °C.

Turning to `C=CCCCCCCCCCCCCCCCCCC`, the melting point is 28.5 to 29 °C.

`ClC(Cl)=C(Cl)C(Cl)(Cl)Cl` showed a melting point of -73 to -72.9 °C.

`CCCC(C)(C)O` showed a melting point of -103 to -102 °C.

In turn, `CC(Br)CBr` (stereo not drawn) registered a melting point of -55.5 to -55 °C.

In turn, `CCCCCCCCCCc1ccc(N)cc1` returned a melting point of 24 to 25 °C.

In turn, `CCOc1ccc2ccccc2c1` registered a melting point of 36 to 37.5 °C.

`COc1ccc(Br)c(OC)c1`: the melting point lay in the range of 25 to 26 °C.

For `CCc1ccc(Cl)cc1`, the melting point was -63 to -62.6 °C.

`CCCCCCCCCCCCCCCCCCCC` showed a melting point of 36 to 37 °C.

Molecule `O=Cc1cc(Br)cc(Br)c1O` displayed a melting point of 83 to 86 °C.

In the case of `CC(C)(O)CCC(C)(C)O`, the melting point was 89 to 92 °C.

As for `Nc1ccccc1Oc1ccccc1`, the melting point was 45.8 to 47 °C.

Turning to `COc1cccc(OC)c1C(C)=O`, the melting point was in the range of 69 to 70 °C.

`Nc1ccccc1Nc1ccccc1`: the melting point lay within 79 to 79.5 °C.

`CC=CC=CCO`: the melting point lay within 30.5 to 31 °C.

`CCCCCCCCCC(C)O` (stereo not drawn) came in with a melting point of 0 to 2 °C.

Turning to `Clc1ccc(Br)cc1Cl`, the melting point was in the range of 24 to 25 °C.

`c1ccc(P(CP(c2ccccc2)c2ccccc2)c2ccccc2)cc1` registered a melting point of 119 to 121 °C.

For `Oc1cccc(O)c1`, the melting point is 110 to 111 °C.

Turning to `N#Cc1ccncc1`, the melting point was 76 to 79 °C.

Take `O=S(=O)(c1ccccc1)c1ccccc1`: the melting point worked out at 128 °C.

As to `CCCCCCCCCCCCCCCCCCCCCCCCCC`, the melting point lay within 56.4 to 57 °C.

As to `c1ccc(-c2cccc(-c3ccccn3)n2)nc1`, the melting point fell in the range of 90 to 91 °C.

With `CC(CCC(=O)O)C1CCC2C3C(O)CC4CC(O)CCC4(C)C3CC(O)C12C` (stereo not drawn), the melting point lay within 198 to 201 °C.

For `CCOc1ccc(OCC)cc1`, the melting point fell in the range of 70 to 72 °C.

The molecule `Oc1c(F)cccc1F` showed a melting point of 38 to 39.5 °C.

In the case of `OCc1ccncc1`, the melting point lay in the range of 53 to 54 °C.

Take `Cc1ccc(Cl)cc1N`: the melting point was 23 to 26 °C.

As to `COc1cccc(C(=O)O)c1O`, the melting point lay in the range of 151 to 152 °C.

Consider `C=Cc1cccc(C)c1`, for which the melting point was -86.3 to -82 °C.

Molecule `CCCCSCCCC` came in with a melting point of -80 to -79.7 °C.

Molecule `c1csc(-c2cccs2)c1` had a melting point of 32 to 33 °C.

Turning to `CCCCCCCCCCCCCCC`, the melting point lay in the range of 9.9 to 10 °C.

Take `OCCN1CCOCC1`: the melting point is -1.6 to 2 °C.

Turning to `CCCCCC(C)CC` (stereo not drawn), the melting point is -108 °C.

Molecule `CC(=O)CCC=C(C)C` came in with a melting point of -67.1 to -67 °C.

Turning to `O=[N+]([O-])c1cc(I)c(O)c(I)c1`, the melting point fell in the range of 153 to 157 °C.

`COc1ccc(C=CC(=O)c2ccccc2)cc1` returned a melting point of 75 to 79 °C.

Regarding `O=C(O)c1ccccc1-c1c2cc(Br)c(=O)c(Br)c-2oc2c(Br)c(O)c(Br)cc12`, the melting point is 296 to 300 °C.

`CC1=CCC(C(C)(C)O)CC1O` (stereo not drawn) showed a melting point of 130 to 131 °C.

With `CCCCCCCCCC(=O)O`, the melting point fell in the range of 31 to 32 °C.

Molecule `Oc1c(Cl)cc(Cl)c2cccnc12` displayed a melting point of 180 to 181 °C.

In turn, `COc1ccc(C(=O)c2ccccc2)c(O)c1` came in with a melting point of 64 to 65.5 °C.

In the case of `CC(C)(Oc1ccc(Cl)cc1)C(=O)O`, the melting point is 118 to 120 °C.

Turning to `Nc1ccc(Oc2ccccc2)cc1`, the melting point lay within 83 to 84 °C.

Molecule `CCOC(=O)c1c[nH]nc1N` came in with a melting point of 103 to 106 °C.

Take `Cn1c(=O)c2c(ncn2C)n(C)c1=O`: the melting point was in the range of 235 to 238 °C.

Consider `CC(C)CC(C)C(C)C` (stereo not drawn), for which the melting point is -128 °C.

Turning to `C=C(C)C`, the melting point is -140 °C.

As to `Cc1ccc([N+](=O)[O-])cc1Br`, the melting point is 76 to 78 °C.

For `OCC(F)(F)F`, the melting point was -44 to -43.5 °C.

As to `Cc1nc2ccccc2s1`, the melting point is 12 to 14 °C.

The molecule `COC(=O)c1ccc(Cl)cc1` returned a melting point of 43 to 44 °C.

`Nc1ccc(Cl)cc1[N+](=O)[O-]` had a melting point of 116 to 118 °C.

The molecule `O=C1Cc2ccccc2N1` had a melting point of 126 to 128 °C.

For `c1ccc(-c2cnc(-c3ccccc3)o2)cc1`, the melting point was in the range of 72 to 74 °C.

Molecule `BrCCCCCCCCCCCCBr` gave a melting point of 40 to 41 °C.

As for `NCC(O)c1ccccc1` (stereo not drawn), the melting point lay in the range of 56.5 to 57 °C.

For the molecule `OCC(O)C1OC2OC(C(Cl)(Cl)Cl)OC2C1O` (stereo not drawn), the melting point lay within 183 to 187 °C.

Take `C=Cc1ccc(C(=O)O)cc1`: the melting point was in the range of 142 to 144 °C.

`Clc1cncc(Cl)c1`: the melting point lay within 65 to 66 °C.

For the molecule `Cc1cc(C)c(C)cc1C`, the melting point is 79 to 80 °C.

`COc1ccccc1OC(=O)Oc1ccccc1OC`: the melting point lay in the range of 87 to 89 °C.

For `Cc1ccc(C(C)C)cc2c(C)ccc1-2`, the melting point is 31.5 to 32 °C.
